PMC11187126, “Structure and dynamics of the pyroglutamylated RF-amide peptide QRFP receptor GPR103” (Nature Communications, 2024)
Read-outs that look alike come from different tables or passages of the source. No end group written: not given here.

Target: T1, GPR103 Q318^7.39A (Homo sapiens, UniProt Q96P65, Q318A)
T1 construct: we used human full-length QRFPR-encoding plasmids; expressed in transfected cells; host or cells: HEK293 cells (HEK293A in the flow cytometry section), pCAGGS vector
T1 sequence (Q96P65 1-431 Q318A): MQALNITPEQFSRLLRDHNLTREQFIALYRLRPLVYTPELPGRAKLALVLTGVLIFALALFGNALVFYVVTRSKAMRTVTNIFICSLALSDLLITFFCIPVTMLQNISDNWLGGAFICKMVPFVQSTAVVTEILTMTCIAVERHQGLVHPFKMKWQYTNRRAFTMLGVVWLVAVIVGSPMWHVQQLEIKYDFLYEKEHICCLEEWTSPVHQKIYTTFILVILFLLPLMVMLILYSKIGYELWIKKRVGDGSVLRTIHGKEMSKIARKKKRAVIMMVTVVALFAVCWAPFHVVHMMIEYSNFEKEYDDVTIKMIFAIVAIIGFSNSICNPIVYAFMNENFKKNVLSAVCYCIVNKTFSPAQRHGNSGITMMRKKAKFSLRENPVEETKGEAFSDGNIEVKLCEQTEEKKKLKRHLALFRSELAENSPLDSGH
Test: TGFα shedding assay; Exp. level WT (1:50)
Type: cell-based

Emax (Exp. #1): 14.85 % WT
Emax (Exp. #2): 10.08 % WT
Emax (Exp. #3): 10.26 % WT
Emax (mean, read-out: Emax): 11.7%
EC50 (n = 3): 85.1 nM
Emax (n = 3, read-out: Emax): 11.7 ± 1.3%
Substance: TSGPLGNLAEELNGYSRKKGGFSFRF-NH2 [QRFP26]
